Data on two compounds can be found in patent US8846918B2, “Compounds useful as inhibitors of ATR kinase” (Vertex Pharmaceuticals Incorporated, priority 2011, dated 2014).

This assay concerns the target T1, ATR kinase (Homo sapiens, UniProt Q13535).
T1 construct: Assays were carried out at 25° C. in the presence of 5 nM full-length ATR
The assay can be described thus: ATR Inhibition Assay (radioactive-phosphate incorporation). As to conditions: Ki(app); 5 nM full-length ATR, 10 μM ATP, 800 μM target peptide, 25° C. It counts as biochemical. The protocol: Compounds were screened for their ability to inhibit ATR kinase using a radioactive-phosphate incorporation assay. Assays were carried out in a mixture of 50 mM Tris/HCl (pH 7.5), 10 mM MgCl2 and 1 mM DTT. Final substrate concentrations were 10 μM [γ-33P]ATP (3 mCi 33P ATP/mmol ATP, Perkin Elmer) and 800 μM target peptide (ASELPASQPQPFSAKKK).
Assays were carried out at 25° C. in the presence of 5 nM full-length ATR. An assay stock buffer solution was prepared containing all of the reagents listed above, with the exception of ATP and the test compound of interest. 13.5 μL of the stock solution was placed in a 96 well plate followed by addition of 2 μL of DMSO stock containing serial dilutions of the test compound (typically starting from a final concentration of 15 μM with 3-fold serial dilutions) in duplicate (final DMSO concentration 7%). The plate was pre-incubated for 10 minutes at 25° C. and the reaction initiated by addition of 15 μL [γ-33P]ATP (final concentration 10 μM).
The reaction was stopped after […] by the addition of 300 μL 0.1M phosphoric acid containing 2 mM ATP. […]
After removing mean background values for all of the data points, Ki(app) data were calculated from non-linear regression analysis of the initial rate data using the Prism software package (GraphPad Prism version 3.0cx for Macintosh, GraphPad Software, San Diego Calif., USA).

T1 sequence (Q13535 whole entry): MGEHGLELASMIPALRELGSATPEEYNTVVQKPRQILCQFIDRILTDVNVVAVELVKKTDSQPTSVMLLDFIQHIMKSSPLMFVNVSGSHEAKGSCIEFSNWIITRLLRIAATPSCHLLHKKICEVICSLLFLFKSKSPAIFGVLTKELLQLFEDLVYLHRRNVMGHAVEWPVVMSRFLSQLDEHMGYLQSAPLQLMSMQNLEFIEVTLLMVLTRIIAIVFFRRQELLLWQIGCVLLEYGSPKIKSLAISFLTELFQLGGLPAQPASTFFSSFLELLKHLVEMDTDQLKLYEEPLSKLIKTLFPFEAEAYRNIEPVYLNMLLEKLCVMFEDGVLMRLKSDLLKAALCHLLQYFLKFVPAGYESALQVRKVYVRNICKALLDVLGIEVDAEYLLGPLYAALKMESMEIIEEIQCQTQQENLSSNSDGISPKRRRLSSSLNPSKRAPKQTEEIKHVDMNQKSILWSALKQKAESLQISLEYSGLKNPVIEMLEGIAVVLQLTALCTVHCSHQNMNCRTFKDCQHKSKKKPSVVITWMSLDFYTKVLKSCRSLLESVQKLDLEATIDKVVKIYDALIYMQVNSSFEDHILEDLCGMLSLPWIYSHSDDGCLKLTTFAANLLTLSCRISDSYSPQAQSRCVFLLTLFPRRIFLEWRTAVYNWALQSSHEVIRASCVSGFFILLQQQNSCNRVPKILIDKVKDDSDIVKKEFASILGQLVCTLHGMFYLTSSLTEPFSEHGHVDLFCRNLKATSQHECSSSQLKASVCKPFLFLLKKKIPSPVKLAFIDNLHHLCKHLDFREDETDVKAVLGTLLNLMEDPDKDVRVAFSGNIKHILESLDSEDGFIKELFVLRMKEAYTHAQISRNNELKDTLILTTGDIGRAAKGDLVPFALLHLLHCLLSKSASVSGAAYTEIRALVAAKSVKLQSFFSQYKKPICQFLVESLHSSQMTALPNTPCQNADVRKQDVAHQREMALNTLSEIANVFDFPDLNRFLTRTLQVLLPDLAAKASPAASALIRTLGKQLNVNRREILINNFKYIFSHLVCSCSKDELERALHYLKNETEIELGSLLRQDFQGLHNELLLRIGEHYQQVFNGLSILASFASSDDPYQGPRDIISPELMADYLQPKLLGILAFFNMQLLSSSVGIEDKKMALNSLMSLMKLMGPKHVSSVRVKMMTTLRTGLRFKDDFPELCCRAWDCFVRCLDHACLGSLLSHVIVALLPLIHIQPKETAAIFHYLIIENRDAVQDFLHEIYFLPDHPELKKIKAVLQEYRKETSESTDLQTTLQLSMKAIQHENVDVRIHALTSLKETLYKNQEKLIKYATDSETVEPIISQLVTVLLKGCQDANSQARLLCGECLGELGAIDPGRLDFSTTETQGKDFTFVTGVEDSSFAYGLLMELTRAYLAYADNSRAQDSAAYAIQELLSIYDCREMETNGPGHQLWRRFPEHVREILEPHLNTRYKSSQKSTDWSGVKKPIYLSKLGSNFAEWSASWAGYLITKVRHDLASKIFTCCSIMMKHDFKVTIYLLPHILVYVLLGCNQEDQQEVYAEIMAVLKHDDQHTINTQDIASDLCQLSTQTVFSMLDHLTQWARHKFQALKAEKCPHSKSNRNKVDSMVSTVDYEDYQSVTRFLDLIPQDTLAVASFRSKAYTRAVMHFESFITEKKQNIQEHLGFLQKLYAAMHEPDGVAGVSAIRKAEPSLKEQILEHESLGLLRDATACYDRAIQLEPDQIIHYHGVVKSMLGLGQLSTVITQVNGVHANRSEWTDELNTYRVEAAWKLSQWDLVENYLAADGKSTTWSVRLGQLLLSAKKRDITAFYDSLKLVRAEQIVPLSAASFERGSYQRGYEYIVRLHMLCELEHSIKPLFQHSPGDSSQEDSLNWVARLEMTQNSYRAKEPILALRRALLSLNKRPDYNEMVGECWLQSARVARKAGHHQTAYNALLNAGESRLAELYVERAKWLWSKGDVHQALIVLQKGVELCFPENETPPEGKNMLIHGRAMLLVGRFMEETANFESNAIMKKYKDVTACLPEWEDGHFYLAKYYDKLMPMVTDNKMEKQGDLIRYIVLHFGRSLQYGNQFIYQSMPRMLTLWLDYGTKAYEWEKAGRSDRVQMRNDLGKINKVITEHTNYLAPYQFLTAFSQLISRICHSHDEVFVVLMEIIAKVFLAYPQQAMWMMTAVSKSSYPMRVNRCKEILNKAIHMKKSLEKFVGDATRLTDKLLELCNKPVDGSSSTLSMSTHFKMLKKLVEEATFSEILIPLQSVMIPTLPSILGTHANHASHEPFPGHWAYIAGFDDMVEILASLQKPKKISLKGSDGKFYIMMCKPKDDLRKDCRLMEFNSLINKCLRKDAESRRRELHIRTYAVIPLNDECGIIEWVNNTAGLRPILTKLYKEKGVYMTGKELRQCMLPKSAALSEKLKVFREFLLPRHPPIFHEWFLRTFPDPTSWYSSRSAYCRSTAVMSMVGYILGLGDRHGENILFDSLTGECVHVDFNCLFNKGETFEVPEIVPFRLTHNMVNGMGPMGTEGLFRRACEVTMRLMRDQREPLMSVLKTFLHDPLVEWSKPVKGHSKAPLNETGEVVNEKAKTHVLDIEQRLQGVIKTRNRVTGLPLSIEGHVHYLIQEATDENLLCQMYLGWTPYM

With “2-(4-(5-amino-6-(4-iodo-3-(4-(((tetrahydro-2H-pyran-4-yl)amino)methyl)phenyl)isoxazol-5-yl)pyrazin-2-yl)pyridin-2-yl)-2-methylpropanenitrile [Compound I-2]”, the Ki came to 0.09 µM.

Consider `CC(C)S(=O)(=O)c1ccc(-c2cnc(N)c(-c3onc(-c4ccc(CNC5CCOCC5)cc4)c3I)n2)cc1` [Compound I-1, 3-(4-iodo-3-(4-(((tetrahydro-2H-pyran-4-yl)amino)methyl)phenyl)isoxazol-5-yl)-5-(4-(isopropylsulfonyl)phenyl)pyrazin-2-amine], for which the Ki is 0.016 µM.
